Laboratory results taken from patent publication US7781593B2, “5-phenyl-nicotinamide derivatives” (Hoffmann-La Roche Inc., priority 2006, dated 2010).

Columns and labels:
[1] = doses of 10 and 20 mg daily; cited from earlier work
[2] = wild-type versus CB1 receptor knockout mice; cited from earlier work
[3] = molecular target: T1, human cannabis CB1 receptor (Homo sapiens, UniProt P21554); test: Affinity for cannabinoid CB1 receptors, [3H]-CP-55,940 radioligand binding on HEK cell membranes
T1 construct: expressed in transfected cells; host or cells: human embryonic kidney (HEK) cells, Semliki Forest Virus system, membrane preparation
Procedure: The affinity of the compounds of the invention for cannabinoid CB1 receptors was determined using membrane preparations of human embryonic kidney (HEK) cells in which the human cannabis CB1 receptor is transiently transfected using the Semliki Forest Virus system in conjunction with [3H]-CP-55,940 as radioligand. After incubation of a freshly prepared cell membrane preparation with the [3H]-ligand, with or without addition of compounds of the invention, separation of bound and free ligand was performed by filtration over glassfiber filters. Radioactivity on the filter was measured by liquid scintillation counting.
The compounds of formula (I) show an excellent affinity for the CB1 receptor, determined with the experimental conditions described in Devane et al. Mol. Pharmacol. 34 (1988) 605-613.

T1 sequence (P21554 whole entry): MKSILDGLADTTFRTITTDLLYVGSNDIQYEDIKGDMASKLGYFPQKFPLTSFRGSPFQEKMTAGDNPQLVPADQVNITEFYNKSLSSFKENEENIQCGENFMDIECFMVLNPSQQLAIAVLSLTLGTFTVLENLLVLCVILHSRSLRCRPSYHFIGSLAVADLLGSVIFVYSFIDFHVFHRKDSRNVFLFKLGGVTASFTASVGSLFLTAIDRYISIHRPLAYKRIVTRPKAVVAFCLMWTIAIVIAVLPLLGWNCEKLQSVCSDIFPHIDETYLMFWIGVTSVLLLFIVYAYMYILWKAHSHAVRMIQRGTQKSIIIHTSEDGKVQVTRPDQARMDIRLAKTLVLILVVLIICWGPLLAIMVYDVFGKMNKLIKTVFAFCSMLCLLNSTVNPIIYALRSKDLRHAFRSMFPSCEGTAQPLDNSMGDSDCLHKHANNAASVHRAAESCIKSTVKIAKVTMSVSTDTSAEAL

| Structure (SMILES) | body weight compared to placebo [1] | food intake [2] | Ki [3] [nM] |
| --- | --- | --- | --- |
| Cc1c(C(=O)NN2CCCCC2)nn(-c2ccc(Cl)cc2Cl)c1-c1ccc(Cl)cc1 [SR 141716] | significantly reduced body weight | reduces food intake in wild-type but not knockout mice |  |
| O=C(N[C@@H]1CCCC[C@H]1O)c1cnc(CCc2cncnc2)c(-c2ccc(C(F)(F)F)cc2)c1 [Example 3, N-((1R,2R)-2-Hydroxy-cyclohexyl)-6-(2-pyrimidin-5-yl-ethyl)-5-(4-trifluoromethyl-phenyl)-nicotinamide] |  |  | 60 |
| O=C(N[C@@H]1CCCC[C@H]1O)c1cnc(CCc2cccnc2)c(-c2ccc(Cl)cc2)c1 [Example 7, 5-(4-Chloro-phenyl)-N-((1R,2R)-2-hydroxy-cyclohexyl)-6-(2-pyridin-3-yl-ethyl)-nicotinamide] |  |  | 11 |
| O=C(N[C@@H]1CCCC[C@H]1O)c1cnc(CCC2CC2)c(-c2ccc(Cl)cc2)c1 [Example 2, 5-(4-Chloro-phenyl)-6-(2-cyclopropyl-ethyl)-N-((1R,2R)-2-hydroxy-cyclohexyl)-nicotinamide] |  |  | 26 |
